Patent publication US4927831A, “Spiro-isoquinoline-pyrrolidine tetrones and analogs thereof useful as aldose reductase inhibitors” (American Home Products, priority 1989, dated 1990)
Where two headings read alike, the source gives them in different places. Values belong to the compound of their own block, whether it stands above or below them.

Tests used:
aldose reductase = target: T1, aldose reductase (Bos taurus, UniProt P16116); test: in vitro aldose reductase inhibition (modified Hayman and Kinoshita; enzyme from bovine lens); format: biochemical; conditions: read-out: % Inhibition IN VITRO
T1 construct: preparation of the enzyme from bovine lens; from tissue; host or cells: bovine lens
Procedure: Only two minor reagent changes were made: (a) The rinsing mixture was an aqueous 5% (w/v) trichloroacetic acid solution and (b) the stock solution was prepared by dissolving 25 mg of dulcitol in 100 ml of an aqueous trichloroacetic acid solution. [N.B.: For each experiment the average value found in the tissue from rats fed the glucose diet was subtracted from the individual values found in the corresponding tissue in galactose-fed rats to obtain the amount of polyol accumulated.] […] In the present case the procedure of Hayman and Kinoshita was modified in that the final chromatography step was omitted in the preparation of the enzyme from bovine lens. […] The figures under L and N represent the percentage decrease of dulcitol accumulation in the tissues of the lens and sciatic nerve, respectively, for treated rats as compared to untreated rats.

[1] = system: dulcitol accumulation in the lens; test: % lowering of dulcitol accumulation in lens (L) of galactosemic rats; format: in vivo, Sprague-Dawley; set-up: key: NS: statistically nonsignificant change; conditions: 4 days
Source text: (§1) The aldose reductase inhibiting property of the compounds of this invention and the utilization of the compounds in preventing, diminishing and alleviating diabetic complications are demonstrable in experiments using galactosemic rats, see Dvornik et al., Science, 182, 1146 (1973). Such experiments are exemplified hereinbelow after the listing of the following general comments pertaining to these experiments:
(§2) (a) Four or more groups of six male rats, 50-70 g, Sprague-Dawley strain, were used. The first group, the control group, was fed a mixture of laboratory chow (rodent Laboratory Chow, Purina) and glucose at 20% (w/w %) concentration. An untreated galactosemic group was fed a similar diet in which galactose was substituted for glucose. The third group was fed a diet prepared by mixing a given amount of the test compound with the galactose containing diet. The concentration of galactose in the diet of the treated groups was the same as that for the untreated galactosemic group.
(§3) (b) After four days, the animals were killed by euthanization. Both the lens and sciatic nerve were removed, weighed and stored frozen for polyol determination.
(§4) (c) The polyol determination was performed by a modification of the procedure of M. Kraml and L. Cosyns, Clin. Biochem., 2,373 (1969). Only two minor reagent changes were made: (a) The rinsing mixture was an aqueous 5% (w/v) trichloroacetic acid solution and (b) the stock solution was prepared by dissolving 25 mg of dulcitol in 100 ml of an aqueous trichloroacetic acid solution. [N.B.: For each experiment the average value found in the tissue from rats fed the glucose diet was subtracted from the individual values found in the corresponding tissue in galactose-fed rats to obtain the amount of polyol accumulated.] The aldose reductase inhibiting effects of the compounds of formula (I) were also tested by employing an in vitro testing procedure similar to that described by S. Hayman and J.H. Kinoshita, J. Biol. Chem., 240,877 (1965). In the present case the procedure of Hayman and Kinoshita was modified in that the final chromatography step was omitted in the preparation of the enzyme from bovine lens.
(§5) The figures under L and N represent the percentage decrease of dulcitol accumulation in the tissues of the lens and sciatic nerve, respectively, for treated rats as compared to untreated rats.

[2] = system: dulcitol accumulation in the sciatic nerve; test: % lowering of dulcitol accumulation in sciatic nerve (N) of galactosemic rats; format: in vivo, Sprague-Dawley; set-up: key: NS: statistically nonsignificant change; conditions: 4 days
Source text: as §1, §2, §3, §4, §5

Compound: CN1C(=O)c2ccc(Br)cc2C2(CC(=O)NC2=O)C1=O (stereo not drawn) [6-Br H CH3, 6-Bromo-2-methylspiro[isoquinoline-4(1H),3'-pyrrolidine]-1,2',3,5'(2H)-tetrone]
inhibition at 0.04 µM (aldose reductase; 4 × 10^-8 M): 43%
inhibition at 10 µM (aldose reductase; 10^-5 M): 100%
inhibition at 1 µM (aldose reductase; 10^-6 M): 100%
inhibition at 0.1 µM (aldose reductase; 10^-7 M): 85%
% Lowering Dulcitol Accumulation IN VIVO, L (lens) ([1]; 1.0 mg/kg in diet): NS
% Lowering Dulcitol Accumulation IN VIVO, N (sciatic nerve) ([2]; 1.0 mg/kg in diet): 54%

Compound: O=C1C[C@]2(C(=O)N1)C(=O)N(Cc1ccc(Br)cc1F)C(=O)c1ccccc12 [(S)-(-)-2-[(4-Bromo-2-fluorophenyl)methyl]spiro[isoquinoline-4(1H),3'-pyrrolidine]-1,2',3,5'(2H)-tetrone]
inhibition at 10 µM (aldose reductase; 10^-5 M): 87%
inhibition at 1 µM (aldose reductase; 10^-6 M): 51%
% Lowering Dulcitol Accumulation IN VIVO, L (lens) ([1]; 0.5 mg/kg in diet): NS
% Lowering Dulcitol Accumulation IN VIVO, L (lens) ([1]; 4.8 mg/kg in diet): NS
% Lowering Dulcitol Accumulation IN VIVO, N (sciatic nerve) ([2]; 0.5 mg/kg in diet): NS
% Lowering Dulcitol Accumulation IN VIVO, N (sciatic nerve) ([2]; 4.8 mg/kg in diet): 83%

Compound: O=C1C[C@]2(C(=O)N1)C(=O)N(Cc1ccc(Br)cc1F)C(=O)c1ccc(F)cc12 [(S)-(-)-[2-[(4-Bromo-2-fluorophenyl)methyl]-6-fluoro]spiro[isoquinoline-4(1H),3'-pyrrolidine]-1,2',3,5'(2H)-tetrone]
inhibition at 0.04 µM (aldose reductase): 29%
inhibition at 0.1 µM (aldose reductase): 46%
inhibition at 1 µM (aldose reductase): 97%
inhibition at 10 µM (aldose reductase): 98%
% Lowering Dulcitol Accumulation IN VIVO, L (lens) ([1]; 0.4 mg/kg in diet): NS
% Lowering Dulcitol Accumulation IN VIVO, L (lens) ([1]; 0.8 mg/kg in diet): 21%
% Lowering Dulcitol Accumulation IN VIVO, N (sciatic nerve) ([2]; 0.4 mg/kg in diet): 40%
% Lowering Dulcitol Accumulation IN VIVO, N (sciatic nerve) ([2]; 0.8 mg/kg in diet): 70%

Compound: O=C1C[C@@]2(C(=O)N1)C(=O)N(Cc1ccc(Br)cc1F)C(=O)c1ccc(F)cc12 [(R)-(+)-[2-[(4-Bromo-2-fluorophenyl)methyl]-6-fluoro]spiro[isoquinoline-4(1H),3'-pyrrolidine]-1,2',3,5'(2H)-tetrone]
inhibition at 0.04 µM (aldose reductase): 93%
inhibition at 0.1 µM (aldose reductase): 93%
inhibition at 1 µM (aldose reductase): 95%
inhibition at 10 µM (aldose reductase): 99%
% Lowering Dulcitol Accumulation IN VIVO, L (lens) ([1]; 0.4 mg/kg in diet): 31%
% Lowering Dulcitol Accumulation IN VIVO, L (lens) ([1]; 0.8 mg/kg in diet): 26%
% Lowering Dulcitol Accumulation IN VIVO, N (sciatic nerve) ([2]; 0.4 mg/kg in diet): 100%
% Lowering Dulcitol Accumulation IN VIVO, N (sciatic nerve) ([2]; 0.8 mg/kg in diet): 100%

Compound: CCN1C(=O)c2ccccc2C2(CC(=O)NC2=O)C1=O (stereo not drawn) [H H CH2 CH3, 2-Ethylspiro[isoquinoline-4(1H),3'-pyrrolidine]-1,2',3,5'(2H)-tetrone]
inhibition at 0.04 µM (aldose reductase; 4 × 10^-8 M): 17%
inhibition at 1 µM (aldose reductase; 10^-6 M): 76%
inhibition at 0.1 µM (aldose reductase; 10^-7 M): 27%
inhibition at 10 µM (aldose reductase): 96%
% Lowering Dulcitol Accumulation IN VIVO, L (lens) ([1]; 11 mg/kg in diet): NS
% Lowering Dulcitol Accumulation IN VIVO, N (sciatic nerve) ([2]; 11 mg/kg in diet): NS

Now from value to compound, other results behind:

inhibition at 0.04 µM (aldose reductase; 4 × 10^-8 M): 34%
inhibition at 10 µM (aldose reductase; 10^-5 M): 95%
inhibition at 1 µM (aldose reductase; 10^-6 M): 92%
inhibition at 0.1 µM (aldose reductase; 10^-7 M): 61%
Compound: CN1C(=O)c2cc(Cl)ccc2C2(CC(=O)NC2=O)C1=O (stereo not drawn) [H 7-Cl CH3, 7-Chloro-2-methylspiro[isoquinoline-4(1H)3'-pyrrolidine]-1,2',3,5'(2H)-tetrone]
% Lowering Dulcitol Accumulation IN VIVO, L (lens) ([1]; 3.0 mg/kg in diet): 14%
% Lowering Dulcitol Accumulation IN VIVO, N (sciatic nerve) ([2]; 3.0 mg/kg in diet): 21%

inhibition at 0.04 µM (aldose reductase; 4 × 10^-8 M): 70%
inhibition at 10 µM (aldose reductase; 10^-5 M): 98%
inhibition at 1 µM (aldose reductase; 10^-6 M): 97%
inhibition at 0.1 µM (aldose reductase; 10^-7 M): 88%
Compound: COc1cc2c(cc1Br)C1(CC(=O)NC1=O)C(=O)N(Cc1ccc(Br)cc1F)C2=O (stereo not drawn) [[6-Bromo-2-[(4-bromo-2-fluorophenyl)methyl]-7-methoxy]spiro[isoquinoline-4(1H),3'-pyrrolidine]-1,2',3,5'(2H)-tetrone]
% Lowering Dulcitol Accumulation IN VIVO, L (lens) ([1]; 0.5 mg/kg in diet): NS
% Lowering Dulcitol Accumulation IN VIVO, L (lens) ([1]; 26.4 mg/kg in diet): 48.8%
% Lowering Dulcitol Accumulation IN VIVO, N (sciatic nerve) ([2]; 0.5 mg/kg in diet): 55.2%
% Lowering Dulcitol Accumulation IN VIVO, N (sciatic nerve) ([2]; 26.4 mg/kg in diet): 89.5%

inhibition at 0.04 µM (aldose reductase; 4 × 10^-8 M): 8%
inhibition at 10 µM (aldose reductase; 10^-5 M): 97%
inhibition at 1 µM (aldose reductase; 10^-6 M): 92%
inhibition at 0.1 µM (aldose reductase; 10^-7 M): 55%
Compound: O=C1CC2(C(=O)N1)C(=O)N(Cc1ccc(Br)cc1F)C(=O)c1ccc(Cl)cc12 (stereo not drawn) [[2-[(4-Bromo-2-fluorophenyl)methyl]-6-chloro]spiro[isoquinoline-4(1H),3'-pyrrolidine]-1,2',3,5'(2H)-tetrone]
% Lowering Dulcitol Accumulation IN VIVO, L (lens) ([1]; 0.6 mg/kg in diet): 9%
% Lowering Dulcitol Accumulation IN VIVO, N (sciatic nerve) ([2]; 0.6 mg/kg in diet): 29%
